Experimental data: US20260365991A1, “COMPOUNDS FOR STABILIZING PEPTIDES IN BIOLOGICAL SAMPLES” (Roche Diagnostics Operations, Inc., priority 2023, published 2026)

Columns and labels:
gastrin-17 [1] = assay: Gastrin-17 stabilization by sulfone compounds in horse serum (Example 3); assay type: biochemical, human gastrin-17 (GAST_HUMAN) in horse serum; conditions: for ability to stabilize gastrin-17 in serum / stabilizing effect on gastrin-17 compared with DMSO: 5% [v/v], horse serum, room temperature, 5 h and 24 h
Description: Gastrin-17 (GAST_HUMAN(77-92)[Pyr-77]amid) was solved in horse serum with a concentration of 2.0 mg/ml and diluted to 0.22 mg/mL.
This solution was spiked respectively to reach a concentration of gastrin-17 of 0.1 mg/ml in (a) horse serum with added 5% [v/v]H2O; (b) horse serum with added 5% [v/v] DMSO (CAS: 67-68-5); (c) horse serum added 5% [v/v] Sulfolane (CAS: 126-33-0); d) horse serum with added 5% [v/v]trimethylene sulfone (CAS: 5687-92-3); e) horse serum with added 5% [v/v]1,1-dioxoisothiazolidine (CAS: 5908-62-3); f) horse serum with added 5% [v/v]1,4-butanesultone (CAS: 1633-83-6); g) horse serum with added 5% [v/v]tetrahydro-2H-thiopyran-4-ol 1,1-dioxide (CAS: 194152-05-1); h) horse serum with added 5% [v/v]2-methyltetrahydrothiophene 1,1-dioxide (CAS: 1003-46-9); i) horse serum with added 5% [v/v]ethylmethylsulfone (CAS: 594-43-4). The samples were then stored/incubated at room temperature. Samples were taken after 0 h, 5 h and 24 h. The further experiment was performed as described in Example 1.

[2] = cited from earlier work; for stability against oxidation compared with DMSO: Wasmus S and Vielstich W, Electrochimica Acta 1993
peptides A, B and C [3] = assay: Concentration dependence of stabilization of peptides A, B and C in horse serum (Example 2); assay type: biochemical; conditions: for concentration dependence of stabilization, peptides A, B and C / stabilization of peptides A, B and C: 1.25%, 2.5% and 5% (v/v); for stabilization of peptides A, B and C: room temperature, 0 h and 5 h
Description: (§1) Gastrin-17 (GAST_HUMAN(77-92)[Pyr-77]amid) and MS Qual/Quant QC-Mix (Mat. No.: MSQC2, Sigma Aldrich; comprises peptides A, B and C) was solved in horse serum with a concentration of 2.0 mg/ml and diluted to 0.22 mg/mL.
(§2) This solution was spiked respectively to reach a concentration of 0.1 mg/ml in (a) horse serum with added 5% [v/v] DMSO (CAS: 67-68-5); (b) horse serum with added 5% [v/v] Sulfolane (CAS: 126-33-0); c) horse serum with added 2.5% [v/v] DMSO (CAS: 67-68-5); d) horse serum with added 2.5% [v/v] Sulfolane (CAS: 126-33-0); e) horse serum with added 1.25% [v/v] DMSO (CAS: 67-68-5); f) horse serum with added 1.25% [v/v] Sulfolane (CAS: 126-33-0); The samples were stored at room temperature. A sample was taken 0 h and 5 h after spiking. The further experiment was conducted as described in Example 1.

gastrin-17 [4] = assay: Concentration dependence of gastrin-17 stabilization in horse serum (Example 2); assay type: biochemical, human gastrin-17 (GAST_HUMAN) in horse serum; conditions: for concentration dependence of stabilization, gastrin-17 / stabilization of gastrin-17: 1.25%, 2.5% and 5% (v/v); for stabilization of gastrin-17: room temperature, 0 h and 5 h
Description: as §1, §2

peptides A, B and C [5] = assay: Stability of peptides A, B and C in horse serum with 5% additive (Example 1, HPLC-MS); assay type: biochemical; conditions: for protection ability on different peptides (A, B, C): room temperature, 0 h, 5 h, 23 h
Description: (§3) Gastrin-17 (GAST_HUMAN(77-92)[Pyr-77]amid) and MS Qual/Quant QC-Mix (Mat. No.: MSQC2, Sigma Aldrich, a peptide mix comprising peptides A, B and C as referred to herein) was solved in horse serum with a concentration of 2.0 mg/ml and diluted to 0.22 mg/mL.
(§4) This solution was spiked respectively to reach a final peptide concentration of 0.1 mg/ml in (a) horse serum with added 5% [v/v]H2O; (b) horse serum with added 5% [v/v] DMSO (CAS: 67-68-5); (c) horse serum with added 5% [v/v] Sulfolane (CAS: 126-33-0). The samples were stored at room temperature. Samples were taken at three times after spiking (0 h, 5 h and 23 h) and centrifuged with a Microcon-10 filter (Ultracel PL-10, Regenerated Cellulose 10,000 NMWL) for 10 min at 4 °C and 10,000 rpm. Afterwards the filtrate was separated by a liquid chromatography (HPLC) coupled with MS detector (QTOF Premier, Waters). The separation was done by a reverse phase liquid chromatography (Vydac 218TP C18, 5 μm, 2.1×150 mm, column temperature 50 °C) with a linear gradient to 100% of eluent B over 17 minutes. The eluent A was water with 0.025% [v/v]trifluoroacetic acid and eluent B was acetonitrile with 0.023% [v/v]trifluoroacetic acid. The quantification was done by using […]=1049.9 Da for Gastrin-17, [M+2H]^2+=671.8 Da for peptid A, [M+2H]^2+=751.4 Da for peptid B and [M+2H]^2+=802.9 Da for peptid C. Peptid A, B and C are exemplary peptides contained in the peptid-Mix MS Qual/Quant QC-Mix (Mat. No.: MSQC2, Sigma Aldrich). The peptide mix MS Qual/Quant QC-Mix (Mat. No.: MSQC2, Sigma Aldrich) contained peptides of a length of 4 to 26 amino acids.

gastrin-17 [6] = assay: Gastrin-17 stability in horse serum with 5% additive (Example 1, HPLC-MS); assay type: biochemical, human gastrin-17 (GAST_HUMAN) in horse serum; conditions: for protection ability on gastrin-17: room temperature, 0 h, 5 h, 23 h
Description: as §3, §4

[7] = 5% [v/v], especially after longer incubation (23 h)

In the case of `O=S1(=O)CCCN1` [1,1-dioxoisothiazolidine], the “ability to stabilize gastrin-17 in serum” value (gastrin-17 [1]) is listed as “have the ability to stabilize peptides” and the “stability against oxidation compared with DMSO” value [2] is listed as “more stable against oxidation than DMSO”.

For `O=S1(=O)CCCCO1` [1,4-butanesultone], the “ability to stabilize gastrin-17 in serum” value (gastrin-17 [1]) is given as “have the ability to stabilize peptides”, the “stabilizing effect on gastrin-17 compared with DMSO” value (gastrin-17 [1]) is given as “superior to the DMSO stabilizing effect” and the “stability against oxidation compared with DMSO” value [2] is given as “more stable against oxidation than DMSO”.

In the case of `C[S+](C)[O-]` [DMSO, dimethylsulfoxid, reference compound], the “concentration dependence of stabilization, peptides A, B and C” value (peptides A, B and C [3]; 5 h) is reported as “stabilization increased with the concentration”, the “stabilization of peptides A, B and C” value (peptides A, B and C [3]) is reported as “stabilized each of the peptides” and the “concentration dependence of stabilization, gastrin-17” value (gastrin-17 [4]; 5 h) is reported as “stabilization increased with the concentration”. The “stabilization of gastrin-17” value (gastrin-17 [4]) was “stabilized each of the peptides”, the “protection ability on different peptides (A, B, C)” value (peptides A, B and C [5]; 5% [v/v]) was “both exhibit protection ability” and the oxidation instability ([2]; background statement) was “rather instable”. For the same compound, the “protection ability on gastrin-17” value (gastrin-17 [6]; 5% [v/v]) was “both exhibit protection ability”.

With `O=S1(=O)CCCC1` [Sulfolane] the “ability to stabilize gastrin-17 in serum” value (gastrin-17 [1]) was “have the ability to stabilize peptides”, the “stabilizing effect on gastrin-17 compared with DMSO” value (gastrin-17 [1]) was “superior to the DMSO stabilizing effect” and the “protection of gastrin peptide over a longer period compared with DMSO” value (gastrin-17 [1]; ca. 24 h, similar concentrations like DMSO, serum derived degradation) was “can protect the Gastrin Peptide better over a longer period”. The “concentration dependence of stabilization, peptides A, B and C” value (peptides A, B and C [3]; 5 h) was “stabilization increased with the concentration”, the “stabilization of peptides A, B and C” value (peptides A, B and C [3]) was “stabilized each of the peptides” and the “overall stabilization compared with DMSO, peptides A, B and C” value (peptides A, B and C [3]; 1.25-5% (v/v), 5 h) was “overall better peptide stabilization ability”. For the same compound, the “concentration dependence of stabilization, gastrin-17” value (gastrin-17 [4]; 5 h) was “stabilization increased with the concentration”, the “stabilization of gastrin-17” value (gastrin-17 [4]) was “stabilized each of the peptides” and the “overall stabilization compared with DMSO, gastrin-17” value (gastrin-17 [4]; 1.25-5% (v/v), 5 h) was “overall better peptide stabilization ability”. The “stability improvement (MassSpec peak area)” value (gastrin-17 [4]; FIG. 3, 5% vs 2.5% and 1.25% sulfolane or DMSO, legend says only "Peptide") was “improves stability best”, the “protection of peptides A, B, C compared with DMSO” value (peptides A, B and C [5]; [7]) was “exceeds the DMSO protection outcome” and the “protection ability on different peptides (A, B, C)” value (peptides A, B and C [5]; 5% [v/v]) was “both exhibit protection ability”. For the same compound, the “signal stability over time (MassSpec peak area), peptides A, B and C” value (peptides A, B and C [5]; FIG. 2, 5% [v/v] vs no additive and 5% DMSO) was “better signal stability over time”, the “stability against oxidation compared with DMSO” value [2] was “more stable against oxidation than DMSO” and the “stability of Sulfolane compared with DMSO based upon oxidation” value ([2]; no experiment described at the place) was “more stable than DMSO based upon oxidation”. For the same compound, the “protection of gastrin-17 compared with DMSO” value (gastrin-17 [6]; [7]) was “exceeds the DMSO protection outcome”, the “protection ability on gastrin-17” value (gastrin-17 [6]; 5% [v/v]) was “both exhibit protection ability” and the “signal stability over time (MassSpec peak area), gastrin-17” value (gastrin-17 [6]; FIG. 1, 5% [v/v] vs no additive and 5% DMSO) was “better signal stability over time”.

For `CCS(C)(=O)=O` [ethylmethylsulfone], the “ability to stabilize gastrin-17 in serum” value (gastrin-17 [1]) is listed as “have the ability to stabilize peptides”, the “stabilizing effect on gastrin-17 compared with DMSO” value (gastrin-17 [1]) is listed as “superior to the DMSO stabilizing effect” and the “stability against oxidation compared with DMSO” value [2] is listed as “more stable against oxidation than DMSO”.

In the case of `CC1CCCS1(=O)=O` (stereo not drawn) [methyltetrahydrothiophene 1,1-dioxide, 2-methyltetrahydrothiophene 1,1-dioxide], the “ability to stabilize gastrin-17 in serum” value (gastrin-17 [1]) is given as “have the ability to stabilize peptides”, the “stabilizing effect on gastrin-17 compared with DMSO” value (gastrin-17 [1]) is given as “superior to the DMSO stabilizing effect” and the “stability against oxidation compared with DMSO” value [2] is given as “more stable against oxidation than DMSO”.

In the case of `O=S1(=O)CCC(O)CC1` [tetrahydro-2H-thiopyran-4-ol 1,1-dioxide], the “ability to stabilize gastrin-17 in serum” value (gastrin-17 [1]) is listed as “have the ability to stabilize peptides”, the “stabilizing effect on gastrin-17 compared with DMSO” value (gastrin-17 [1]) is listed as “superior to the DMSO stabilizing effect” and the “stability against oxidation compared with DMSO” value [2] is listed as “more stable against oxidation than DMSO”.

For `O=S1(=O)CCC1` [trimethylene sulfone], the “ability to stabilize gastrin-17 in serum” value (gastrin-17 [1]) is given as “have the ability to stabilize peptides”, the “stabilizing effect on gastrin-17 compared with DMSO” value (gastrin-17 [1]) is given as “superior to the DMSO stabilizing effect” and the “stability against oxidation compared with DMSO” value [2] is given as “more stable against oxidation than DMSO”.
